Structures are written as SMILES. In brackets after ≈: the same amount, converted by molar mass.

One data set relates to Candida albicans. In words: Antimicrobial activity against Candida albicans ATCC 36082 incubated for 2 days at 35 degC by CLSI protocol based method. The conditions noted are these: ATCC 36082, 48 h. Format: functional.
Data set [1] can be described thus: Toxicity in human erythrocytes assessed as induction of hemolysis incubated for 18 hrs. Format: cell-based, Erythrocyte.
Data set [2] in a line: Induction of potassium influx in sterol-free and cholesterol and ergosterol-containing POPC liposomes at 32 uM by BCECF dye based fluorimetric assay. The class given is physicochemical.
The nature of data set [3]: Toxicity in human erythrocytes assessed as induction of hemolysis at 15 uM incubated for 18 hrs. The class given is cell-based, Erythrocyte. The conditions noted are these: read-out: Activity.

In general, MIC refers to the least concentration at which growth counts as inhibited. Usually HC50 stands for the concentration giving 50% haemolysis. The molecule `C[C@@H]1[C@H](O)[C@@H](C)/C=C/C=C/C=C/C=C/C=C/C=C/C=C/[C@H](O[C@@H]2O[C@H](C)[C@@H](O)[C@H](N)[C@@H]2O)C[C@@H]2O[C@](O)(C[C@@H](O)C[C@@H](O)[C@H](O)[C@@H](O)C[C@@H](O)C[C@@H](O)CC(=O)O[C@H]1C)C[C@H](O)[C@H]2C(=O)O` yielded an MIC against Candida albicans of 1 µM (≈ 0.94 µg/mL). Also, the HC50 at 18 h in data set [1] was 6.9 µM. Also, the Activity result in data set [2] was “Not Active”.

In the data set with Candida albicans, `C[C@@H]1[C@H](O)[C@@H](C)/C=C/C=C/C=C/C=C/C=C/C=C/C=C/[C@H](O[C@@H]2O[C@H](C)[C@@H](O)[C@H](N)[C@@H]2O)C[C@@H]2O[C@](O)(C[C@@H](O)C[C@@H](O)[C@H](O)[C@H](O)C[C@@H](O)C[C@@H](O)CC(=O)O[C@H]1C)C[C@H](O)[C@H]2C(=O)O` yielded an MIC of 4 µM (≈ 3.76 µg/mL). Moreover, in data set [1], the HC50 at 18 h was found to be 5.4 µM. Further, the Activity result in data set [2] was “Not Active”.

On to `C[C@@H]1[C@H](O)[C@@H](C)/C=C/C=C/C=C/C=C/C=C/C=C/C=C/[C@H](O[C@@H]2O[C@H](C)[C@@H](O)[C@H](N)[C@@H]2O)C[C@@H]2O[C@](O)(C[C@@H](O)C[C@@H](O)[C@H](O)C(=O)C[C@@H](O)C[C@@H](O)CC(=O)O[C@H]1C)C[C@H](O)[C@H]2C(=O)O`, for which the MIC in the data set on Candida albicans was found to be 2 µM (≈ 1.88 µg/mL). Moreover, the HC50 at 18 h in data set [1] was greater than 15 µM. In data set [3], the hemolysis at 18 h, 15 µM was determined as 10%. The Activity result in data set [2] was “Not Active”.

In turn, `C[C@@H]1[C@H](O)[C@@H](C)/C=C/C=C/C=C/C=C/C=C/C=C/C=C/[C@H](O[C@@H]2O[C@H](C)[C@@H](O)[C@H](N)[C@@H]2O)C[C@@H]2O[C@](O)(C[C@@H](O)C[C@@H](O)[C@H](O)CC[C@@H](O)C[C@@H](O)CC(=O)O[C@H]1C)C[C@H](O)[C@H]2C(=O)O` [AMPHOTERICIN B] returned an MIC against Candida albicans of 0.25 µM (≈ 0.231 µg/mL). Besides, the HC50 at 18 h in data set [1] was determined as 3.2 µM. The outcome in data set [2] was Active.

The values above are taken from ChEMBL document CHEMBL3603791, “Role of polyol moiety of amphotericin B in ion channel formation and sterol selectivity in bilayer membrane” (Bioorg Med Chem, 2015).
